Values quoted from earlier work in US12186420B2, “Compositions and methods of use for treatment or improvement of the condition and appearance of skin” (Quthero, Inc., priority 2020, dated 2025).

Test system: keratinocyte
Settings: in the presence of reactive oxygen species

For “QHREDGS [angiopoietin-1 derived peptide]”, which keratinocyte death is on record?
The keratinocyte death was “reduce keratinocyte death”.
